Data taken from the NIST ThermoML archive (doi:10.1021/acs.jced.7b00939).
“And” between values parts separate entries of the source, which are not always exact repeats. Identical values can stand only once. Numbers after ± are expanded uncertainties.

Details: Liquid, Vibrating tube method

CCCCC(CC)COC(=O)c1ccc(C(=O)OCC(CC)CCCC)c(C(=O)OCC(CC)CCCC)c1 (stereo unspecified) [tris(2-ethylhexyl) trimellitate]
Details	mass density
328.15 K, 5110 kPa	965.697 ± 1.9 kg/m3
328.15 K, 10110 kPa	968.884 ± 2 kg/m3
328.15 K, 20120 kPa	974.939 ± 2 kg/m3
328.15 K, 30110 kPa	980.701 ± 2 kg/m3
333.15 K, 100 kPa	959.014 ± 1.9 kg/m3 [middle of 4 runs]
353.15 K, 100 kPa	944.616 ± 1.9 kg/m3 [middle of 4 runs]
363.15 K, 100 kPa	937.285 ± 1.9 kg/m3 and 937.369 ± 1.9 kg/m3
363.15 K, 5110 kPa	941.043 ± 1.9 kg/m3
363.15 K, 10110 kPa	944.715 ± 1.9 kg/m3
363.15 K, 20120 kPa	951.677 ± 1.9 kg/m3
363.15 K, 30130 kPa	958.176 ± 1.9 kg/m3
363.15 K, 40130 kPa	964.291 ± 1.9 kg/m3
363.15 K, 50140 kPa	969.983 ± 2 kg/m3
373.15 K, 100 kPa	930.229 ± 1.9 kg/m3 and 930.252 ± 1.9 kg/m3
383.15 K, 100 kPa	923.009 ± 1.9 kg/m3 and 923.041 ± 1.9 kg/m3 and 923.028 ± 1.9 kg/m3
388.15 K, 100 kPa	919.579 ± 1.9 kg/m3
388.15 K, 2640 kPa	921.672 ± 1.9 kg/m3
388.15 K, 5170 kPa	923.804 ± 1.9 kg/m3
388.15 K, 7730 kPa	925.892 ± 1.9 kg/m3
388.15 K, 10170 kPa	927.866 ± 1.9 kg/m3
388.15 K, 15260 kPa	931.875 ± 1.9 kg/m3
388.15 K, 20280 kPa	935.659 ± 1.9 kg/m3
388.15 K, 30390 kPa	942.915 ± 1.9 kg/m3
388.15 K, 40500 kPa	949.605 ± 1.9 kg/m3
388.15 K, 50560 kPa	955.87 ± 1.9 kg/m3
388.15 K, 68700 kPa	966.125 ± 2 kg/m3
393.15 K, 100 kPa	915.76 ± 1.9 kg/m3 and 915.768 ± 1.9 kg/m3
403.15 K, 100 kPa	908.475 ± 1.8 kg/m3 and 908.487 ± 1.8 kg/m3 and 908.679 ± 1.8 kg/m3
403.15 K, 2640 kPa	910.921 ± 1.8 kg/m3
403.15 K, 5110 kPa	912.879 ± 1.8 kg/m3
403.15 K, 5170 kPa	913.199 ± 1.8 kg/m3
403.15 K, 7690 kPa	915.392 ± 1.9 kg/m3
403.15 K, 10110 kPa	917.229 ± 1.9 kg/m3
403.15 K, 10220 kPa	917.585 ± 1.9 kg/m3
403.15 K, 15270 kPa	921.805 ± 1.9 kg/m3
403.15 K, 20110 kPa	925.405 ± 1.9 kg/m3
403.15 K, 20320 kPa	925.852 ± 1.9 kg/m3
403.15 K, 30120 kPa	932.929 ± 1.9 kg/m3
403.15 K, 30380 kPa	933.471 ± 1.9 kg/m3
403.15 K, 40120 kPa	939.962 ± 1.9 kg/m3
403.15 K, 40430 kPa	940.482 ± 1.9 kg/m3
403.15 K, 50130 kPa	946.45 ± 1.9 kg/m3
403.15 K, 50540 kPa	947.085 ± 1.9 kg/m3
403.15 K, 68140 kPa	957.148 ± 1.9 kg/m3
403.15 K, 68470 kPa	957.846 ± 1.9 kg/m3
413.15 K, 100 kPa	901.142 ± 1.8 kg/m3 and 901.152 ± 1.8 kg/m3
423.15 K, 100 kPa	893.777 ± 1.8 kg/m3 and 893.78 ± 1.8 kg/m3
423.15 K, 2590 kPa	896.162 ± 1.8 kg/m3
423.15 K, 5100 kPa	898.654 ± 1.8 kg/m3
423.15 K, 7590 kPa	901.053 ± 1.8 kg/m3
423.15 K, 10100 kPa	903.407 ± 1.8 kg/m3
423.15 K, 20110 kPa	912.286 ± 1.9 kg/m3
423.15 K, 30120 kPa	920.442 ± 1.9 kg/m3
423.15 K, 40120 kPa	927.911 ± 1.9 kg/m3
423.15 K, 50120 kPa	934.915 ± 1.9 kg/m3
423.15 K, 68140 kPa	946.287 ± 1.9 kg/m3
